According to PubChem BioAssay (NCI):
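Abbreviation: GI50, concentration required for 50% inhibition of growth. TGI: total growth inhibition.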

Key:
Experiment in all cases: NCI tumour cell line growth inhibition, 384-well format
786-0 renal = test system: 786-0 renal
A498 renal = test system: A498 renal
A549 NSCLC = test system: A549 NSCLC
BT-549 breast = test system: BT-549 breast
CAKI-1 renal = test system: CAKI-1 renal
COLO 205 colon = test system: COLO 205 colon
EKVX NSCLC = test system: EKVX NSCLC
HCC-2998 colon = test system: HCC-2998 colon
HCT-116 colon = test system: HCT-116 colon
HCT-15 colon = test system: HCT-15 colon
HL-60(TB) leukemia = test system: HL-60(TB) leukemia
HOP-62 NSCLC = test system: HOP-62 NSCLC
HOP-92 NSCLC = test system: HOP-92 NSCLC
HS 578T breast = test system: HS 578T breast
HT29 colon = test system: HT29 colon
IGROV1 ovarian = test system: IGROV1 ovarian
K-562 leukemia = test system: K-562 leukemia
KM12 colon = test system: KM12 colon
LOX IMVI melanoma = test system: LOX IMVI melanoma
MALME-3M melanoma = test system: MALME-3M melanoma
MCF7 breast = test system: MCF7 breast
MDA-MB-231 breast = test system: MDA-MB-231 breast
MDA-MB-468 breast = test system: MDA-MB-468 breast
MOLT-4 leukemia = test system: MOLT-4 leukemia
NCI-H23 lung = test system: NCI-H23 lung
NCI-H460 NSCLC = test system: NCI-H460 NSCLC
OVCAR-3 ovarian = test system: OVCAR-3 ovarian
OVCAR-4 ovarian = test system: OVCAR-4 ovarian
OVCAR-5 ovarian = test system: OVCAR-5 ovarian
OVCAR-8 ovarian = test system: OVCAR-8 ovarian
RPMI-8226 leukemia = test system: RPMI-8226 leukemia
SF-268 CNS = test system: SF-268 CNS
SF-295 CNS = test system: SF-295 CNS
SK-MEL-2 melanoma = test system: SK-MEL-2 melanoma
SK-MEL-28 melanoma = test system: SK-MEL-28 melanoma
SK-MEL-5 melanoma = test system: SK-MEL-5 melanoma
SK-OV-3 ovarian = test system: SK-OV-3 ovarian
SN12C renal = test system: SN12C renal
SNB-19 CNS = test system: SNB-19 CNS
SNB-75 CNS = test system: SNB-75 CNS
SR leukemia = test system: SR leukemia
SW-620 colon = test system: SW-620 colon
T-47D breast = test system: T-47D breast
TK-10 renal = test system: TK-10 renal
UACC-257 melanoma = test system: UACC-257 melanoma
UACC-62 melanoma = test system: UACC-62 melanoma
UO-31 renal = test system: UO-31 renal

Compound: C=CC(=O)N[C@H]1CCOC[C@H]1Nc1ncc2cc(-c3c(Cl)c(OC)cc(OC)c3Cl)ccc2n1
- GI50 ([…]-0 renal): 16.5 µM
- TGI (786-0 renal): 50.1 µM
- GI50 (A498 renal): 10.6 µM
- TGI (A498 renal): 40.2 µM
- GI50 (A549 NSCLC): 17.3 µM
- TGI (A549 NSCLC): 74.2 µM
- GI50 (BT-549 breast): 4.77 µM
- TGI (BT-549 breast): 19.5 µM
- GI50 (CAKI-1 renal): 12 µM
- TGI (CAKI-1 renal): 82.4 µM
- GI50 (COLO 205 colon): 18.2 µM
- TGI (COLO 205 colon): 46.1 µM
- GI50 (EKVX NSCLC): 12.3 µM
- TGI (EKVX NSCLC): 39.6 µM
- GI50 (HCC-2998 colon): 16.2 µM
- TGI (HCC-2998 colon): 32.5 µM
- GI50 (HCT-116 colon): 15.1 µM
- TGI (HCT-116 colon): 33.6 µM
- GI50 (HCT-15 colon): 11.4 µM
- TGI (HCT-15 colon): 35.5 µM
- GI50 (HL-60(TB) leukemia): 9.62 µM
- TGI (HL-60(TB) leukemia): 22.7 µM
- GI50 (HOP-62 NSCLC): 20.4 µM
- TGI (HOP-62 NSCLC): 57.2 µM
- GI50 (HOP-92 NSCLC): 7.37 µM
- TGI (HOP-92 NSCLC): 28.2 µM
- GI50 (HS 578T breast): 12 µM
- TGI (HS 578T breast): 27.9 µM
- GI50 (HT29 colon): 14 µM
- TGI (HT29 colon): 96.2 µM
- GI50 (IGROV1 ovarian): 17.9 µM
- TGI (IGROV1 ovarian): 63.5 µM
- GI50 (K-562 leukemia): 7.1 µM
- TGI (K-562 leukemia): 26.9 µM
- GI50 (KM12 colon): 19.2 µM
- TGI (KM12 colon): 47.7 µM
- GI50 (LOX IMVI melanoma): 13 µM
- TGI (LOX IMVI melanoma): 27.3 µM
- GI50 (MALME-3M melanoma): > 53.7 µM
- TGI (MALME-3M melanoma): > 100 µM
- GI50 (MCF7 breast): 11.9 µM
- TGI (MCF7 breast): 46.4 µM
- GI50 (MDA-MB-231 breast): 9.96 µM
- TGI (MDA-MB-231 breast): > 78.7 µM
- GI50 (MDA-MB-468 breast): 3.37 µM
- TGI (MDA-MB-468 breast): 13.9 µM
- GI50 (MOLT-4 leukemia): 2.59 µM
- TGI (MOLT-4 leukemia): 14.8 µM
- GI50 (NCI-H23 lung): 16.9 µM
- TGI (NCI-H23 lung): 63.9 µM
- GI50 (NCI-H460 NSCLC): 11.8 µM
- TGI (NCI-H460 NSCLC): 25.7 µM
- GI50 (OVCAR-3 ovarian): 13.9 µM
- TGI (OVCAR-3 ovarian): 34 µM
- GI50 (OVCAR-4 ovarian): 14.9 µM
- TGI (OVCAR-4 ovarian): 54.1 µM
- GI50 (OVCAR-5 ovarian): 27.5 µM
- TGI (OVCAR-5 ovarian): > 88.4 µM
- GI50 (OVCAR-8 ovarian): 16 µM
- TGI (OVCAR-8 ovarian): 35.1 µM
- GI50 (RPMI-8226 leukemia): 4.12 µM
- TGI (RPMI-8226 leukemia): 15 µM
- GI50 (SF-268 CNS): 4.16 µM
- TGI (SF-268 CNS): 23.9 µM
- GI50 (SF-295 CNS): 28.1 µM
- TGI (SF-295 CNS): > 86.7 µM
- GI50 (SK-MEL-2 melanoma): 15.9 µM
- TGI (SK-MEL-2 melanoma): 30.4 µM
- GI50 (SK-MEL-28 melanoma): 35.6 µM
- TGI (SK-MEL-28 melanoma): > 100 µM
- GI50 (SK-MEL-5 melanoma): 10.9 µM
- TGI (SK-MEL-5 melanoma): 23.6 µM
- GI50 (SK-OV-3 ovarian): 19.4 µM
- TGI (SK-OV-3 ovarian): 63.4 µM
- GI50 (SN12C renal): 15.4 µM
- TGI (SN12C renal): 75 µM
- GI50 (SNB-19 CNS): 19.2 µM
- TGI (SNB-19 CNS): 55.7 µM
- GI50 (SNB-75 CNS): 6.99 µM
- TGI (SNB-75 CNS): 33.5 µM
- GI50 (SR leukemia): 5.39 µM
- TGI (SR leukemia): 19 µM
- GI50 (SW-620 colon): 19 µM
- TGI (SW-620 colon): > 52.5 µM
- GI50 (T-47D breast): 5.24 µM
- TGI (T-47D breast): 23 µM
- GI50 (TK-10 renal): 20.9 µM
- TGI (TK-10 renal): > 95.6 µM
- GI50 (UACC-257 melanoma): 13.9 µM
- TGI (UACC-257 melanoma): 38.8 µM
- GI50 (UACC-62 melanoma): 10.7 µM
- TGI (UACC-62 melanoma): 25.1 µM
- GI50 (UO-31 renal): 23.3 µM
- TGI (UO-31 renal): 98 µM
